# Assay results published in ChEMBL document CHEMBL1129680, “Discovery of novel, non-peptide HIV-1 protease inhibitors by pharmacophore searching” (J Med Chem, 1996).
# Calls of active or inactive are those of the source. The rule behind the calls is not given here.
# Assays:
# [1] = biological target: Human immunodeficiency virus type 1 protease (Human immunodeficiency virus 1) (UniProt Q72874); assay: Evaluated for the inhibition of HIV-1 Protease.
# [2] = biological target: Human immunodeficiency virus type 1 integrase (Human immunodeficiency virus 1) (UniProt Q7ZJM1); assay: Inhibitory concentration against HIV-1 Integrase 3' chain transfer
# Sequence of Human immunodeficiency virus type 1 integrase (Human immunodeficiency virus 1) (Q7ZJM1 as listed by the source): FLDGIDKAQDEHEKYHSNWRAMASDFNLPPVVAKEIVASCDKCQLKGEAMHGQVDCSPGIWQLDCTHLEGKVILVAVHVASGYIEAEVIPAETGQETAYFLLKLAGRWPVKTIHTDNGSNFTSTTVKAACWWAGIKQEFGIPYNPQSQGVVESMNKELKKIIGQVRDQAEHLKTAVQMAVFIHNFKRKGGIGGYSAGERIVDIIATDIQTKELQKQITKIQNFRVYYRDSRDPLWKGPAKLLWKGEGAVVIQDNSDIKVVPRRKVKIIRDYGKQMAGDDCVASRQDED
# Homo sapiens [3] = species on record: Homo sapiens; assay: Antiviral activity against HIV virus induced infection in human PBLs cells; format: functional, cell-based
# [4] = Inhibition of compound against p7 nucleocapsid fluorescence intensity of the zinc finger ); NI = No inhibition; format: functional
# [5] = biological target: Human immunodeficiency virus type 1 protease (Human immunodeficiency virus 1) (UniProt Q72874)
# [6] = biological target: Human immunodeficiency virus type 1 protease (Human immunodeficiency virus 1) (UniProt Q72874); remark: listed apart in the source
# Homo sapiens [7] = species on record: Homo sapiens; assay: Cytotoxicitic activity […] in human PBLs cells; format: functional, cell-based
# [8] = biological target: Human immunodeficiency virus type 1 reverse transcriptase (Human immunodeficiency virus 1) (UniProt Q72547); assay: Inhibitory concentration against Reverse Transcriptase
# [9] = biological target: Human immunodeficiency virus type 1 integrase (Human immunodeficiency virus 1) (UniProt Q7ZJM1); assay: Inhibitory concentration against HIV-1 Integrase 3' chain processing
ID50 [1],Compound,also measured
32 µM,O=C(Oc1ccccc1)N(CCO)C(c1ccccc1)C(O)c1ccccc1 (configuration not stated),–
31 µM,CC(C)c1cccc(C(C)C)c1NC(=O)C(=O)CC(=O)CC(c1ccccc1)c1c(O)oc2ccccc2c1=O (configuration not stated),–
13 µM,O=c1oc2c(-c3ccccc3)cccc2c(O)c1-c1ccccc1,–
6 µM,O=c1oc2cccc(O)c2c(O)c1Cc1ccccc1,–
42 µM,O=c1oc2ccccc2c(O)c1-c1ccccc1,–
2 µM,O=C1C2=C(C(=O)c3ccccc31)C(O)(S(=O)(=O)O)C(O)(S(=O)(=O)O)C1N=CC=CC21 (configuration not stated),–
27 µM,C[C@]12CCC(=O)C=C1CC[C@@H]1[C@@H]2[C@@H](O)C[C@@]2(C)[C@H]1CC[C@]2(O)C(=O)COC(=O)CCC(=O)O,–
24 µM,O=C1C(O)=C(C(C2=C(O)C(=O)c3ccccc3C2=O)c2ccc(Cl)cc2Cl)C(=O)c2ccccc21,–
26 µM,CCCC(=O)C1=C(O)C(Cc2c(O)c(C)c(O)c(C(=O)CCC)c2O)=C(O)C(C)(C)C1=O,–
17 µM,CC(C)CC(NC(=O)OCc1ccccc1)(C(=O)O)C(=O)O,–

# The next lines start with the molecule.
Compound,ID50 [1],also measured
CC(=O)NC(Cc1ccsc1)(C(=O)O)C(=O)O,23 µM,–
CCCCCCc1cc2c(cc1O)OC(=O)C(C(c1ccccc1)c1c(O)oc3cc(O)c(CCCCCC)cc3c1=O)C2O (configuration not stated),0.32 µM,–
CC1(C)CC[C@]2(C(=O)O)CC[C@]3(C)C(=CC[C@@H]4[C@@]5(C)C[C@H](O)[C@H](O)[C@@](C)(C(=O)O)[C@H]5CC[C@]43C)[C@@H]2C1,35 µM,–
O=c1c(C(c2ccc3c(c2)OCO3)c2c(O)oc3ccccc3c2=O)c(O)oc2ccccc12,30 µM,–
O=C1C(O)=C(C(C2=C(O)C(=O)c3ccccc3C2=O)c2ccc(C(C3=C(O)C(=O)c4ccccc4C3=O)C3=C(O)C(=O)c4ccccc4C3=O)cc2)C(=O)c2ccccc21,0.75 µM,–
O=c1c(C(c2ccc(C(c3c(O)oc4ccccc4c3=O)c3c(O)oc4ccccc4c3=O)cc2)c2c(O)oc3ccccc3c2=O)c(O)oc2ccccc12,1.7 µM,ID50 [2]: 0.7 µM; EC50 (Homo sapiens [3]): 11.5 µM; RFU [4]: inactive; ID50 [5]: 1.7 µM; ID50 [6]: inactive; IC50 (Homo sapiens [7]): 54.8 µM; ID50 [8]: 7.1 µM; ID50 [9]: 1.5 µM
O=C1Oc2ccccc2C(O)C1Sc1c(O)oc2ccccc2c1=O (configuration not stated),21 µM,–
CC(=O)OC1CCC2(C)C(C)C(C)CCC2(O)C1O (configuration not stated),16 µM,–
Cc1cn([C@H]2C[C@H](N=[N+]=[N-])[C@@H](COP(=O)(O)OP(=O)(O)OP(=O)(O)O)O2)c(=O)[nH]c1=O,54 µM,–
